# Tests used:
# [1] = system: tobacco leaf pieces (callus formation); assay: Callus formation of leaf pieces from kanamycin-resistant tobacco shoots on selective medium; assay type: cell-based; conditions: sixteen kanamycin-resistant shoots, three weeks; 10 ppb chlorsulfuron and/or 100 ppm D5293
# From the text: Callus formation was scored as plus or minus after three weeks of growth.
# [2] = system: 5-2 gene (In 5-2 mRNA); assay: RNA slot blot / Northern analysis of 5-2 mRNA in roots of chemically treated corn; assay type: in vivo, corn (Missouri 17); conditions: 200 mg/l hydroponic, six hours, corn roots, slot blot 2 μg total RNA
# Method: Details of the techniques used to perform Example 3 are presented in Example 1. The cDNA library made from poly (A)+ RNA from the roots of N-(aminocarbonyl)-2-chlorobenzenesulfonamide-treated Missouri 17 corn plants described in Example 1 was analyzed for additional cDNA clones representing N-(aminocarbonyl)-2-chlorobenzenesulfonamide-induced mRNAs. […] This colony was designated In 5-2.
# A small scale plasmid preparation was performed on an overnight culture of In 5-2 and an aliquot of the plasmid, designated pIn 5-2, was nick-translated as described earlier. Slot blot analysis was performed as described in Example 1 using nick-translated In 5-2 plasmid. […] This plasmid was designated pIn 5-2.
# An aliquot of the small scale plasmid preparation of pIn 5-2 was digested to completion with PSt I and analyzed by agarose gel electrophoresis. The cDNA insert of the plasmid was excised as a single 420 bp Pst I fragment. Plasmid pin 5-2 was nick-translated and used to probe a Northern blot of RNA from both untreated and N-(aminocarbonyl)-2-chlorobenzenesulfonamide-treated roots.
# (§1) The ability at various substituted benzenesulfonamides and related compound to induce the expression of the 2-1, 2-2, and 5-2 genes of Missouri 17 corn was evaluated. Corn seeds were germinated and grown hydroponically in 2 liter beakers as described in Example 1. On the tenth day, plants were transferred into fresh 0.5× Hoagland's solution containing the chemical to be tested. Root tissue was harvested from the plants after six hours of chemical treatment, quick-frozen by immersion in liquid N2, and stored at -80° C. until analyzed.
# (§2) Details of the RNA isolation and slot blot analysis procedures are presented in Example 1. Total RNA was prepared from the root tissue of plants that had been treated with various chemicals using the previously described guanidine thiocyanate procedure. Replicate blots, each consisting of 2 μg of total RNA from tissues treated with each of the chemicals shown in tables 8 and 9, were prepared on nitrocellulose membranes using a Minifold II® Slot-blotter (Schleicher & Schuell) following the manufacturer's recommeneded procedure. Replicate blots were prehybridized and hybridized with cDNA probes made by nick translation of the purified cDNA inserts from plasmid pIn 2-1, pIn 2-2-3, and pIn 5-2. Slot blots were washed as described in Example 1 and exposed to Kodak X-OMAT XAR-5 film for 24 hours at -80° C. using a single Du Pont Lightning Plus intensifying screen. Film was developed using a Kodak X-OMAT film processor. The abililty of a chemical to induce the mRNA encoded by the three inducible genes was evaluated in one of two ways. Qualitative evaluation was performed by direct visual comparison of the autoradiographic signal intensities on the films for the hybridization of each probe to the different RNA samples. Quantitative evaluation was performed by cutting each slot containing hybridized RNA from the blot, immersing it in 2 ml of Du Pont ECONOFLUOR® scintillation cocktail and counting the radioactivity in each slot in a scintillation counter. The net amount of radioactivity hybridizing to N-(aminocarbonyl)-2-chlorobenzenesulfonamide-treated RNA after subtraction of radioactivity hybridizing to untreated RNA is presented in Table 15.
# [3] = system: 2-2 gene (In 2-2 mRNA); assay: RNA slot blot / Northern analysis of 2-2 mRNA in roots of chemically treated corn; assay type: in vivo, corn (Missouri 17); conditions: 200 mg/l hydroponic, six hours, corn roots, slot blot 2 μg total RNA
# Method: Details of the techniques used to perform the procedures used in Example 2 are presented in Example 1. The cDNA library made using poly(A)^+ RNA from the roots of N-(aminocarbonyl)-2-chlorobenzenesulfonamide-treated Missouri 17 corn plants (described in Example 1) was analyzed for additional cDNA clones representing mRNAs induced by substituted benzenesulfonamides. […] This colony was designated In 2-2.
# A small scale plasmid preparation was performed on the plasmid contained in colony In 2-2. This plasmid was designated pIn 2-2. An aliquot of pIn 2-2 was nick translated as described earlier. A slot blot containing total RNA from N-(aminocarbonyl)-2-chlorobenzenesulfonamide-treated and untreated roots was prepared and probed with nick-translated pIn 2-2 as described for pIn 2-1 in Example 1.
# The pIn 2-2 small scale plasmid preparation was digested to completion with Pst I and analyzed by agarose gel electrophoresis. The cDNA insert of the plasmid was excised by Pst I as a single 1200 bp fragment. Nick-translatedpIn 2-2 was used to probe a Northern blot of RNA from both untreated and N-(aminocarbonyl)-2-chlorobenzenesulfonamide-treated roots.
# as §1, §2
# [4] = system: 2-2 corn promoter; assay: Transient GUS expression assay, 2-2 corn promoter/GUS constructions in transformed rice protoplasts
# Method: Cell counts were made with a Fuchs-Rosenthal hemocytometer.
# Protoplasts were transformed as follows: Multiple aliquots of the protoplasts (5-10×10^6 cells) were centrifuged gently (80 g) for 4 minutes in sterile tubes. The supernatant was discarded and the cells were resuspended in 1 ml of Kern's F, pH 5.8 buffer. Ten μg of transforming DNA in less than 15 μl of TE pH 8.0 were added per million protoplasts. […] The resulting protoplast cell suspension was mixed gently and incubated at room temperature for 20 minutes. A volume of 13-15 mls of Kren's F, pH 7.0 solution was then added to dilute out PEG.
# The transformed protoplasts were collected by centrifugation at 80 g for 4 minutes. The supernatant was discarded and the protoplasts were resuspended in 2.0 ml of Kren's F, pH 5.8. The protoplast sample was divided into two 1 ml aliquots. One ml of protoplast medium was added to one aliquot of the protoplasts, while 1 ml of the protoplast medium containing 100 μg/ml N-(aminocarbonyl)-2-chlorobenzenesulfonamide was added to the other aliquot.
# The inducibility of the recombinant GUS genes whose expression were controlled by 2-1 corn gene promoter and downstream sequences were determined by measuring the level of the β-glucuronidase enzyme activity in protoplasts cultured in the presence and absence of N-(aminocarbonyl)-2-chlorobenzenesulfonamide. GUS activity was assayed by harvesting protoplasts in a clinical centrifuge at 80 g for 5 minutes, and resuspending them in 1.0 ml 1× GUS lysis buffer (50 mM sodium phosphate pH 7.0, 10 mM β-mercaptoethanol, 10 mM EDTA, 0.1% Triton X-100, 0.1% N-lauroylsarcosine). The suspension containing the lysed protoplasts was vortexed and spun at top speed in a table top clinical centrifuge for 5 minutes. Eighteen μl of the supernatant was transferred to a tube containing 782 μl of water for determination of protein content in the protoplast lysate. […] A protein concentration curve was prepared using bovine serum albumin as a standard. The protein content, so determined, was multiplied by a factor of 7.2 to give the protein content in 130 μl of extract (the amount of extract present in a single time point of the assay-see below). Of the remaining supernatant,585 μl was transferred to a fresh tube.
# The substrate for the GUS assay was 4-methyl-umbelliferyl-β-D-glucuronide (4-MUG) and was obtained from Sigma Chemical Co., St. Louis Mo. […] 4-MUG was prepared as a 10 mM stock in 1× GUS buffer. Sixty-five μl of a pre-warmed (37° C.) 10 mM 4-MUG stock was added to the pre-warmed 585 μl protoplast extract, and a 100 μl aliquot of the resulting mixture was transferred to a well of a 24-well microtiter dish containing 0.9 ml of 0.2M Na2 CO3. Similar aliquots are removed at 1 hour, 2 hour, and 3 hours. The 4-MU flourescence of individual samples, from each time point was determined quantitatively using an excitation wavelength of 365 nm and measuring flourescence at an emission wavelength of 455 nm. […] GUS activity in the transient assay was expressed as picomoles of 4-MU produced per μg protein per hour.
# [5] = system: 2-1 gene (In 2-1 mRNA); assay: RNA slot blot / Northern analysis of 2-1 mRNA in roots of chemically treated corn; assay type: in vivo, corn (Missouri 17); conditions: six hours, corn roots; for In 2-1: net amount of radioactivity hybridizing to treated RNA after subtraction of untreated RNA: 200 mg/l hydroponic, slot blot 2 μg total RNA
# Method: Missouri 17 corn seeds were surface sterilized by soaking them in a solution of 10% commercial bleach and 0.1% sodium dodecylsulfate (SDS) for 30 minutes. Seeds were then rinsed thoroughly in a buchner funnel with sterile distilled water and prepared for germination by placing them onto 5-6 layers of moist sterile paper towels in a 8"×10" glass baking tray. The tray was covered with aluminum foil and placed in the dark in a 30° C. incubator for 48-72 hours to allow the seeds to germinate. After germination, seedlings were grown hydroponically in an apparatus consisting of a sheet of 8 mesh stainless steel wire gauze suspended over the top of a 2 liter glass beaker filled with sterile half strength Hoagland's solution (referred to 0.5× Hoagland's) so that the roots extended through the mesh and into the media. The hydroponic apparatus was aerated by introducing humidified air into the bottom of the beaker with a gas diffusing stone commonly used in tropical fish aquariums. The apparatus was covered with a loose-fitting sheet of aluminum foil and placed in a reach-in growth chamber illuminated by both fluorescent and incandescent lamps at an intensity of 4400 lux. Seedlings were grown at 28° C., 75% relative humidity using a 16 hour day/8 hour night cycle. After two days, the foil was removed and plants were grown for an additional 5-6 days. Any 0.5× Hoagland's lost to evaporation was replenished every 2-3 days. […] Plants were then allowed to grow for six additional hours prior to harvest.
# A nitrocellulose filter (Schlicher and Schull BA-85) was wetted by soaking it twice for 10 minutes in water, followed by a 10 minute soak in 1M ammonium acetate. The filter was then placed into a Slot Blot apparatus (Schleicher and Schuell, Inc., Keene, N.H. 03431, CAT #SRC072/0). […] Forty pl of denaturation buffer (30% formaldehyde, 100 mM sodium phosphate pH 6.8) were added to each sample and all samples were then incubated at 65° C. for 20-30 minutes and quick-cooled in an ice slurry for 5 minutes. Thirty μl of 4M ammonium acetate were added to each sample and the 150 μl samples were added to slots in the blotting cell with the aid of a 10-15 mm Hg vacuum. The filter was removed from the blotting cell, air dried and baked for 2 hours at 70° C. in vacuo.
# The filter was cut into six pieces such that each piece had one slot cox.raining RNA from each of the three treatments described above. One of the filter pieces was incubated with 10 ml of prehybridization buffer (50% deienized formamide, 5× SSC, 5× Denhardt's, 100 μg/ml denatured calf thymus DNA, 20 μg/ml homopoly(A), 40 mM sodium phosphate pH 6.8 and 0.5% BSA) in a heat-sealable bag for 6 hours at 42° C. with occasional mixing. The filter piece was then hybridized with nick-translated pIn 2-1. This was performed by discarding the prehybridization solution from the bag and replacing it with 2.5 ml of hybridization buffer (50% deionized formamide, 5× SSC, 100 μg/ml denatured calf thymus DNA, 20 μg/ml homopoly(A) and 40 mM sodium phosphate, pH 6.8) containing 1.25×10^7 cpm of nick translated 2-1 plasmid described above. Nick-translated plasmid was denatured by boiling for 10 minutes followed by quick-cooling on ice. The filter was then hybridized overnight at 42° C. with occasional mixing.
# [6] = system: metabolism of chlorsulfuron and metsulfuron methyl; conditions: wheat and corn following application of the antidote; cited from earlier work
# [7] = system: petunia P6.1 gene (P6 RNA); assay: Northern / RNAse protection analysis of P6 RNA in roots of chemically treated petunia; assay type: in vivo, Petunia (Mitchell); conditions: hydroponic 100 mg/l, roots
# From the text: Petunia (Mitchell) seeds were germinated in soil and allowed to grow for one month under standard greenhouse conditions. Plants were transferred to a hydroponic growth apparatus in a greenhouse using foam plugs to support the plants. These plugs were then placed in holes in a wooden bDard and placed over a stainless steel sink containing 0.5× Hoagland's solution. The solution was aerated using standard aquarium pumps, and was changed weekly. After one month of hydroponic growth, plants were transferred to stainless steel trays containing either fresh 0.5 × Hoagland's or 0.5× Hoagland's containing 0.2 g per liter of N-(aminocarbonyl)-2-chlorobenzenesulfonamide. Root tissue was harvested after six hours of treatment.
# Ten μg (2 mg/ml) of total RNA from control and N-(aminocarbonyl)-2-chlorobenzenesulfonamide-treated roots was denatured by adding 10 μl of deionized formamide, 3.5 μl formaldehyde, 4 μl 5× MEN buffer (40 mM MOPS pH 7.0, 10 mM sodium acetate, 1 mM EDTA) and incubating at 65° C. for 15 minutes. […] RNA was stained in the presence of 10 mM sodium phosphate pH 6.8 and 1 μg/ml acridine orange for 30 minutes. The gel was then desrained in 10 mM sodium phosphate for 30 minutes, and the RNA was visualized on a UV transilluminator, photographed, and blotted to nitrocellulose (Millipore HAWP). To do this, Whatman 3MM paper was placed below the gel on a glass plate so that the ends of the paper extended into 20× SSC. A sheet of nitroccllulose which had been prewet with 2× SSC was placed on top of the gel followed by a layer of Whatman 3MM, then a stack of paper towels 10 cm high. A glass plate and weight were then placed on top of the stack. Following an overnight transfer, the filter was rinsed briefly in 2× SSC, air dried, and baked in vacuo for 2 hours at 80° C.
# The filters were prehybridized for 5 hours in plastic dishes at 42° C. using the hybridization buffer described earlier. Plasmid p6.1 was nick-translated by combining 1 μg of DNA with 5 μl 10× buffer (0.5M Tris-HCl pH 8.0, 0.1M MgSO4, 10 mM DTT and 0.5 mg/ml BSA), 5 μl 0.3 uM d(AGT)TP, 5 μl ^32 P-dCTP (Amersham, 10 mCi/ml, 400 Ci/mmole), 1 μl DNA polymerase 1 (5 U/μl, Boehringer-Mannheim), and 1 μl of 0.1 μg/ml DNAse 1 in a total volume of 50 μl. […] The reaction was then incubated for 5 minutes at 70° C., and labelled DNA was separated from unincorporated nucleotides by Sephadex® G-50 column chromatography. The prehybridization solution was removed from the bag and replaced with hybridization solution containing nick-translated plasmid P6.1 DNA at a concentration of 1×10^6 cpm/ml. […] Filters were washed twice with 2× SSC, 0.1% SDS at 42° C. followed by two washes in 0.1× SSC, 0.1%SDS at 60° C.
# RNA probes complementary to the coding strands in both P644 and P645 were synthesized in the following reaction: 50 uCi ^32 P-UTP, 2 μl 5× transcription buffer (200 mM Tris-HCl pH 7.5, 30 mM MgCl2, 10 mM spermidine), 0.5 μl 0.2M DTT, and 0.5 μl of either T3 polymerase (plasmid P645) or T7 polymerase (plasmid P644). Incubation was carried out at 40° C. for 1 hour. The DNA template was hydrolyzed for 15 minutes at 37° C. by addition of 30 μl H2 O, 1 μl RNAsin, 2,5 μl vanadyl ribonucleoside complex, 6 μl 5× transcription buffer and 1 μl DNAse 1 (1 mg/ml) to the transcription reaction. The reaction was extracted with an equal volume of phenol:chloroform (1:1 v/v). The RNA was precipitated once with ethanol in the presence of ammonium acetate and once with ethanol in the presence of sodium acetate. The pellets were dissolved in 25 μl of TE. Ten μg of RNA from untreated and N-(aminocarbonyl)-2-chlorobenzenesulfonamide-treated plants were mixed with 1×10^6 cpm of each of the two probes in 30 ul of hybridization buffer (40 mM PIPES pH 6.7, 0.4M NaCl, 1 mM EDTA). […] Single stranded RNA was selectively digested by adding 300 μl RNAse A and RNAse T1 to 40 μg/ml and 2 μg/ml respectively in 10 mM Tris-HCl pH 7.5, 5 mM EDTA, and 300 mM NaCl.
# [8] = rice protoplasts transformed with pTDS133, compound at 100 μg/l
"AVE. INDUCTION [4, 8]","Assay 3 (induction of GUS activity) [4, 8]",Structure (SMILES),also measured
7.75,43,NC(=O)NS(=O)(=O)c1ccccc1Cl [Compound 5],"In 5-2: net amount of radioactivity hybridizing to treated RNA after subtraction of untreated RNA [2]: 59; In 2-2: net amount of radioactivity hybridizing to treated RNA after subtraction of untreated RNA [3]: 136; Assay 1 (induction of GUS activity) [4, 8]: 8.7; Assay 2 (induction of GUS activity) [4, 8]: 6.8; In 2-1: net amount of radioactivity hybridizing to treated RNA after subtraction of untreated RNA [5]: 296"
5.2,5.2,CCCCNC(=O)NS(=O)(=O)c1cnccc1Cl [Compound 19],–
24.2,24.2,CC(C)(C)NC(=O)NS(=O)(=O)c1ccc(Cl)nc1Cl [Compound 21],–
1.6,1.6,CN(C)C(=O)c1cccnc1S(=O)(=O)NC(N)=O [Compound 18],–
30,30.2,CCCCNC(=O)NS(=O)(=O)c1ccccc1S(=O)(=O)N(C)C(F)(F)C(F)F [Compound 16],–
38.6,38.6,CCCNC(=O)NS(=O)(=O)c1ccccn1 [Compound 20],–

# Further lines, the molecule ahead of its results:
Structure (SMILES),"AVE. INDUCTION [4, 8]","Assay 3 (induction of GUS activity) [4, 8]",also measured
"COc1nc(C)nc(NC(=O)NS(=O)(=O)c2ccccc2Cl)n1 [Chlorsulfuron, chlorsulfuron, reference compound]",–,–,Callus formation (shoots whose leaf pieces formed callus / shoots tested) [1]: 12/16
CCCCNC(=O)NS(=O)(=O)c1ccoc1C(=O)OC [Compound 14],27.3,27.3,–
O=C1OC(=O)c2cccc3cccc1c23 [napthalic anhydride],–,–,increases in the metabolism rates of chlorsulfuron and metsulfuron methyl [6]: 2 to 5 fold
CNC(=O)NS(=O)(=O)c1c(C)cccc1OC [Compound 17],16.6,16.6,–
"NS(=O)(=O)c1ccccc1Cl [2-chlorobenzenesulfonamide, reference compound]",–,–,"hybridization of pIn 2-1 to root RNA (RNA slot blot) ([5]; hydroponic 0.2 g/liter): extremely weakly, if at all"
"O=C(O)c1ccccc1O [Salicylic acid, reference compound]",–,–,"time at which P6 RNA level declined to that seen in untreated plants [7]: ≤ 6 h; time at which maximal levels of P6 RNA were seen ([7]; sampled at 2, 4, 6 and 22 hours): ≤ 2 h"
CCCCNC(=O)NS(=O)(=O)c1ccccc1P(=O)(OCC)OCC [Compound 1],–,–,In 5-2: net amount of radioactivity hybridizing to treated RNA after subtraction of untreated RNA [2]: 47; In 2-2: net amount of radioactivity hybridizing to treated RNA after subtraction of untreated RNA [3]: 332; In 2-1: net amount of radioactivity hybridizing to treated RNA after subtraction of untreated RNA [5]: 204
"CCCCNC(=O)NS(=O)(=O)c1cccc(Cl)c1S(=O)(=O)N(C)C [Compound 2 (Table 15), N'-[2-(n-butylaminocarbonyl)]-6-chloro-N,N-dimethyl-1,2-benzene-disulfonamide]",–,–,ability to induce GUS activity in transformed protoplasts (rank) ([4]; rice protoplasts transformed with pTDS133): most active
N#CCON=C(C#N)c1ccccc1 [cyometrinil],–,–,increases in the metabolism rates of chlorsulfuron and metsulfuron methyl [6]: 2 to 5 fold
CCCCNC(=O)NS(=O)(=O)c1cccc(C)c1S(=O)(=O)CCC [Compound 15],24,24.1,–
"C=CCN(CC=C)C(=O)C(Cl)Cl [N,N-diallyl-2,2-dichloroacetamide]",–,–,increases in the metabolism rates of chlorsulfuron and metsulfuron methyl [6]: 2 to 5 fold

# Source: US5608143A, “External regulation of gene expression” (E. I. Du Pont de Nemours and Company, priority 1994, dated 1997)
